Assay results as given in PMC6018746, “Activation of the p53-MDM4 regulatory axis defines the anti-tumour response to PRMT5 inhibition through its role in regulating cellular splicing” (Scientific Reports, 2018).

Tested on: p53 wild-type Z-138 xenograft model
Assay: Z-138 xenograft efficacy
Assay type: in vivo, mouse
Conditions: 21 days

CC(=O)N1CCC(Nc2cc(C(=O)NC[C@H](O)CN3CCc4ccccc4C3)ncn2)CC1 [GSK3326595]
tumour growth inhibition (TGI) (25 mg/kg BID oral): 52.1%
tumour growth inhibition (TGI) (50 mg/kg BID oral): 88.03%
tumour growth inhibition (TGI) (100 mg/kg BID oral): 106.05%
